Entries after “also recorded” stand apart in the source; their conditions may differ.
What was measured:
Type in all cases: in vivo, humans
HO-1 = assay: Plasma HO-1 levels following SnPP injection
Protocol: Plasma HO-1 levels were measured at baseline and from 1-4 days following 9, 27, or 90 mg SnPP injection. Time and dose dependent increases were observed (mean values/95% confidence intervals depicted).
The plasma HO-1 levels rose following SnPP injection in stage 3 CKD ([…]) and stage 4 CKD ([…]) participants as shown in FIG. 2. Plasma HO-1 levels were measured at baseline and from 1-4 days following 27 mg or 90 mg SnPP injection. […] P<0.001, all in-group comparisons; ANOVA, repeated measures. The mean values/95% confidence intervals are depicted.
(§1) Baseline and maximal (peak) plasma anti-oxidant protein concentrations, as generated with the highest test dose of SnPP (90 mg). CKD=CKD 3 and CKD 4 groups combined. […] The values presented are means and 95% confidence intervals. Please see the figures for change of values over time and statistics by ANOVA for repeated measures. […] The timing of the peak values were 4 days, 12 hrs, 12 hrs and 4 hrs for HO-1, ferritin, p21, and NQO1, respectively.

p21 = assay: Plasma p21 concentrations following SnPP injection
Protocol: There were marked variations in p21 values between participants, as reflected by large standard deviations (SDs: numbers in parentheses that appear at the bottom of the graph). (HVs=healthy volunteers; BL=baseline).
as §1

[1] = Urine biomarkers of kidney injury after administration of 90 mg tin protoporphyrin
[2] = Estimated glomerular filtration rate after administration of 90 mg tin protoporphyrin; details: mean ± 1 SD
ferritin = assay: Plasma ferritin levels following SnPP injection
Protocol: Plasma ferritin levels were measured at baseline and 24+48 hrs following 90 mg SnPP injection in healthy volunteers and in CKD3/CKD4 participants. […] Means/95% confidence intervals are depicted.
as §1

NQO1 = assay: Plasma and urinary NQO1 responses to 90 mg SnPP infusion
Protocol: Values are means/95% confidence intervals; urine values are after log base 10 conversion; statistics by ANOVA repeated measures, in-group comparisons.
as §1

[3] = 90 mg SnPP, healthy volunteers and CKD combined

## C=Cc1c2[n-]c(c1C)/C=c1\[n-]/c(c(C)c1C=C)=C\c1[n-]c(c(CCC(=O)O)c1C)/C=c1\[n-]c(c(C)c1CCC(=O)O)=C2.[Sn+4] [SnPP, tin protoporphyrin]
HO-1; 90 mg SnPP
  timing of the peak plasma value, HO-1: 4 days
HO-1; [3]
  peak plasma HO-1 value vs baseline: significantly higher than baseline values
HO-1; healthy volunteers, baseline and 1-4 days following 9, 27, or 90 mg SnPP injection
  plasma HO-1 levels: rise in a dose dependent fashion; also recorded: rose in a dose dependent fashion
HO-1; stage 3 CKD and stage 4 CKD participants, 1-4 days following 27 mg or 90 mg SnPP injection
  plasma HO-1 levels: rise and Time and dose dependent HO-1 increases
p21; 90 mg SnPP
  p21 response, CKD group compared to healthy volunteer group: significantly blunted p21 response
  timing of the peak plasma value, p21: 12 h
p21; [3]
  peak plasma p21 value vs baseline: significantly higher than baseline values
p21; CKD group (combined)
  plasma p21 fold increase over baseline (mean): 0.51
p21; healthy volunteer and CKD participants, 12 and 24 hrs post SnPP injection
  plasma p21: plasma p21 increases
p21; healthy volunteer group
  plasma p21 fold increase over baseline (mean): 2.65
[1]; CKD 3, Day 1, mean ± 1 SD
  urine Cystatin C: 26.8 ± 12.9 ng/mg Cr
  urine KIM-1: 0.8 ± 0.2 ng/mg Cr
  urine NAG: 5.66 ± 3.44 mU/mg Cr
  urine NGAL: 46.5 ± 35.3 ng/mg Cr
[1]; CKD 3, Day 2, mean ± 1 SD
  urine Cystatin C: 32.2 ± 9.8 ng/mg Cr
  urine KIM-1: 1.5 ± 0.6 ng/mg Cr
  urine NAG: 8.2 ± 3.44 mU/mg Cr
  urine NGAL: 35.8 ± 23.2 ng/mg Cr
[1]; CKD 3, Day 3, mean ± 1 SD
  urine Cystatin C: 34.0 ± 9.4 ng/mg Cr
  urine KIM-1: 1.4 ± 0.6 ng/mg Cr
  urine NAG: 6.5 ± 1.7 mU/mg Cr
  urine NGAL: 49.8 ± 39.7 ng/mg Cr
[1]; CKD 3, Day 4, mean ± 1 SD
  urine Cystatin C: 33.2 ± 33.2 ng/mg Cr
  urine KIM-1: 0.9 ± 0.2 ng/mg Cr
  urine NAG: 5.9 ± 2.1 mU/mg Cr
  urine NGAL: 42.6 ± 51.7 ng/mg Cr
[1]; CKD 4, Day 1, mean ± 1 SD
  urine Cystatin C: 332 ± 519 ng/mg Cr
  urine KIM-1: 0.8 ± 1.0 ng/mg Cr
  urine NAG: 12.5 ± 11.34 mU/mg Cr
  urine NGAL: 58.0 ± 79.1 ng/mg Cr
[1]; CKD 4, Day 2, mean ± 1 SD
  urine Cystatin C: 638 ± 965 ng/mg Cr
  urine KIM-1: 1.2 ± 1.0 ng/mg Cr
  urine NAG: 10.6 ± 7.5 mU/mg Cr
  urine NGAL: 64.8 ± 91.0 ng/mg Cr
[1]; CKD 4, Day 3, mean ± 1 SD
  urine Cystatin C: 186 ± 213 ng/mg Cr
  urine KIM-1: 1.2 ± 1.0 ng/mg Cr
  urine NAG: 10.5 ± 5.6 mU/mg Cr
  urine NGAL: 47.3 ± 60.2 ng/mg Cr
[1]; CKD 4, Day 4, mean ± 1 SD
  urine Cystatin C: 207 ± 238 ng/mg Cr
  urine KIM-1: 1.0 ± 0.8 ng/mg Cr
  urine NAG: 6.2 ± 3.4 mU/mg Cr
  urine NGAL: 48.0 ± 49.5 ng/mg Cr
[1]; HVs, Day 1, mean ± 1 SD
  urine Cystatin C: 32.1 ± 15.1 ng/mg Cr
  urine KIM-1: 0.7 ± 0.5 ng/mg Cr
  urine NGAL: 21.1 ± 28.7 ng/mg Cr
[1]; HVs, Day 2, mean ± 1 SD
  urine Cystatin C: 34.8 ± 7.2 ng/mg Cr
  urine KIM-1: 0.8 ± 0.7 ng/mg Cr
  urine NAG: 3.16 ± 1.16 mU/mg Cr
  urine NGAL: 14.8 ± 13.1 ng/mg Cr
[1]; HVs, Day 3, mean ± 1 SD
  urine Cystatin C: 39.6 ± 9.4 ng/mg Cr
  urine KIM-1: 0.7 ± 0.4 ng/mg Cr
  urine NAG: 2.51 ± 0.64 mU/mg Cr
  urine NGAL: 14.0 ± 8.7 ng/mg Cr
[1]; HVs, Day 4, mean ± 1 SD
  urine Cystatin C: 40.4 ± 9.3 ng/mg Cr
  urine KIM-1: 0.6 ± 0.4 ng/mg Cr
  urine NAG: 2.66 ± 0.8 mU/mg Cr
  urine NGAL: 10.2 ± 5.6 ng/mg Cr
[2]; CKD3, Day 2 post SnPP 90 mg
  eGFR: 50 ± 6 ml/min/1.73 m^2
[2]; CKD3, Day 4 post SnPP 90 mg
  eGFR: 47 ± 6 ml/min/1.73 m^2
[2]; CKD4, Day 2 post SnPP 90 mg
  eGFR: 23 ± 5 ml/min/1.73 m^2
[2]; CKD4, Day 4 post SnPP 90 mg
  eGFR: 22 ± 4 ml/min/1.73 m^2
[2]; Healthy Volunteers, Day 2 post SnPP 90 mg
  eGFR: 87 ± 5 ml/min/1.73 m^2
[2]; Healthy Volunteers, Day 4 post SnPP 90 mg
  eGFR: 88 ± 4 ml/min/1.73 m^2
ferritin; 90 mg SnPP
  timing of the peak plasma value, ferritin: 12 h
ferritin; 90 mg SnPP injection
  plasma ferritin increases over baseline, CKD vs healthy volunteer groups: comparable
ferritin; [3]
  peak plasma ferritin value vs baseline: significantly higher than baseline values
ferritin; baseline and 24+48 hrs following 90 mg SnPP injection, healthy volunteers and CKD3/CKD4
  plasma ferritin levels: increase; also recorded: significant plasma ferritin increases
NQO1; 90 mg SnPP
  timing of the peak plasma value, NQO1: 4 h
NQO1; [3]
  peak plasma NQO1 value vs baseline: significantly higher than baseline values
NQO1; healthy volunteer and CKD participants, 90 mg SnPP injection
  plasma NQO1: acute, near identical increases
NQO1; healthy volunteers and combined CKD participants, 72 hr observation period, 90 mg SnPP
  urinary NQO1/creatinine levels: significant, and progressive increases

Reference: patent US20250161235A1, “STRESS TEST AND TREATMENT OF CHRONIC KIDNEY DISEASE” (Renibus Therapeutics, Inc., priority 2020, published 2025)
